From patent publication US6444691B1, “1,3-disubstituted ureas as ACAT inhibitors, and method of preparing thereof” (Solvakofarma, a.s., priority 1997, dated 2002)

Key:
[1] = test system: rabbit intestinal mucosa ACAT (acylCoa:cholesterol acyltransferase); experiment: In vitro inhibition of ACAT activity, rabbit intestinal mucosa microsomal fraction; format: biochemical; details: rabbit intestinal mucosa microsomes, concentration 2 μM, versus enzyme activity in 1% dimethylsulfoxide
Method: (§1) The biological activity of the substances was evaluated based on the in vitro inhibition of acylCoa:cholesterol acyltransferase (ACAT) activity. The enzyme was obtained from the microsomal fraction of rat liver cells and rabbit intestinal mucosa of animals fed with cholesterol. The substrates for the enzyme reaction included exogenous oleoyl co-enzyme A and endogenous cholesterol. ^14C-oleoyl co-enzyme A conversion to ^14C-cholesteryl oleate was monitored. From the mixture of extracted lipids, cholesteryl oleate was separated using thin-layer chromatography, and was quantified radiometrically. ACAT specific activity was expressed as the amount of cholesteryl oleate formed per minute per mg microsomal protein.
(§2) Efficiency was calculated as compared to enzyme activity measured in the presence of 1% dimethylsulfoxide used as the solvent to prepare solutions of the substances tested.

[2] = test system: rat liver ACAT (acylCoa:cholesterol acyltransferase); experiment: In vitro inhibition of ACAT activity, rat liver microsomal fraction; format: biochemical; details: rat liver microsomes, concentration 2 μM, versus enzyme activity in 1% dimethylsulfoxide
Method: as §1, §2

1-(2,4-Dimethylphenyl)-3-((4′-nitrophenylthio)-phenyl)-urea [Example 39]
Efficiency (%) mucosa (ACAT inhibition) [1]: 31% | Efficiency (%) liver (ACAT inhibition) [2]: 19%

1-(2,6-Dimethylphenyl)-3-((4′-nitrophenylthio)-phenyl)-urea [Example 40]
Efficiency (%) mucosa (ACAT inhibition) [1]: 34% | Efficiency (%) liver (ACAT inhibition) [2]: 23%

1-(3-Trifluoromethylphenyl)-3-((4′-nitrophenylthio)-phenyl)-urea [Example 44]
Efficiency (%) mucosa (ACAT inhibition) [1]: 45% | Efficiency (%) liver (ACAT inhibition) [2]: 34%

O=C(Nc1ccc(Oc2ccc([N+](=O)[O-])cc2)cc1)Nc1ccccc1F [Example 1, 1-(2-Fluorophenyl)-3-((4′-nitrophenoxy)-phenyl)-urea]
Efficiency (%) mucosa (ACAT inhibition) [1]: 32% | Efficiency (%) liver (ACAT inhibition) [2]: 15%

O=C(Nc1ccc(Oc2ccc([N+](=O)[O-])cc2)cc1)Nc1ccc(F)cc1F [Example 2]
Efficiency (%) mucosa (ACAT inhibition) [1]: 55% | Efficiency (%) liver (ACAT inhibition) [2]: 37%

O=C(Nc1ccc(Oc2ccc([N+](=O)[O-])cc2)cc1)Nc1cc(F)ccc1F [Example 3, 1-(2,5-Difluorophenyl)-3-((4′-nitrophenoxy)-phenyl)-urea]
Efficiency (%) mucosa (ACAT inhibition) [1]: 58% | Efficiency (%) liver (ACAT inhibition) [2]: 49%

O=C(Nc1ccc(Oc2ccc([N+](=O)[O-])cc2)cc1)Nc1c(F)cccc1F [Example 4, 1-(2,6-Difluorophenyl)-3-((4′-nitrophenoxy)-phenyl)-urea]
Efficiency (%) mucosa (ACAT inhibition) [1]: 42% | Efficiency (%) liver (ACAT inhibition) [2]: 0%

O=C(Nc1ccc(Oc2ccc([N+](=O)[O-])cc2)cc1)Nc1ccccc1Cl [Example 5, 1-(2-Chlorophenyl)-3-((4′-nitrophenoxy)-phenyl)-urea]
Efficiency (%) mucosa (ACAT inhibition) [1]: 0% | Efficiency (%) liver (ACAT inhibition) [2]: 0%

O=C(Nc1ccc(Oc2ccc([N+](=O)[O-])cc2)cc1)Nc1cccc(Cl)c1Cl [Example 6, 1-(2,3-Dichlorohenyl)-3-((4′-nitrophenoxy)-phenyl)-urea]
Efficiency (%) mucosa (ACAT inhibition) [1]: 51% | Efficiency (%) liver (ACAT inhibition) [2]: 58%

O=C(Nc1ccc(Oc2ccc([N+](=O)[O-])cc2)cc1)Nc1c(Cl)cccc1Cl [Example 7, 1-(2,6-Dichlorophenyl)-3-((4′-nitrophenoxy)-phenyl)-urea]
Efficiency (%) mucosa (ACAT inhibition) [1]: 25% | Efficiency (%) liver (ACAT inhibition) [2]: 20%

O=C(Nc1ccc(Oc2ccc([N+](=O)[O-])cc2)cc1)Nc1cc(Cl)cc(Cl)c1 [Example 8, 1-(3,5-Dichlorophenyl)-3-((4′-nitrophenoxy)-phenyl)-urea]
Efficiency (%) mucosa (ACAT inhibition) [1]: 0% | Efficiency (%) liver (ACAT inhibition) [2]: 0%

Cc1ccccc1NC(=O)Nc1ccc(Oc2ccc([N+](=O)[O-])cc2)cc1 [Example 9]
Efficiency (%) mucosa (ACAT inhibition) [1]: 0% | Efficiency (%) liver (ACAT inhibition) [2]: 0%

Cc1ccc(NC(=O)Nc2ccc(Oc3ccc([N+](=O)[O-])cc3)cc2)cc1 [Example 10, 1-(4-Methylphenyl)-3-((4′-nitrophenoxy)-phenyl)-urea]
Efficiency (%) mucosa (ACAT inhibition) [1]: 0% | Efficiency (%) liver (ACAT inhibition) [2]: 0%

Cc1ccc(NC(=O)Nc2ccc(Oc3ccc([N+](=O)[O-])cc3)cc2)c(C)c1 [Example 11, 1-(2,4-Dimethylphenyl)-3-((4′-nitrophenoxy)-phenyl)-urea]
Efficiency (%) mucosa (ACAT inhibition) [1]: 0% | Efficiency (%) liver (ACAT inhibition) [2]: 0%

Cc1cccc(C)c1NC(=O)Nc1ccc(Oc2ccc([N+](=O)[O-])cc2)cc1 [Example 12, 1-(2,6-Dimethylphenyl)-3-((4′-nitrophenoxy)-phenyl)-urea]
Efficiency (%) mucosa (ACAT inhibition) [1]: 65% | Efficiency (%) liver (ACAT inhibition) [2]: 41%

Cc1cc(C)cc(NC(=O)Nc2ccc(Oc3ccc([N+](=O)[O-])cc3)cc2)c1 [Example 13, 1-(3,5-Dimethylphenyl)-3-((4′-nitrophenoxy)-phenyl)-urea]
Efficiency (%) mucosa (ACAT inhibition) [1]: 0% | Efficiency (%) liver (ACAT inhibition) [2]: 0%

CC(C)c1cccc(C(C)C)c1NC(=O)Nc1ccc(Oc2ccc([N+](=O)[O-])cc2)cc1 [Example 14, 1-(2,6-Di-(methylethyl)-phenyl)-3-((4′-nitrophenoxy)-phenyl)-urea]
Efficiency (%) mucosa (ACAT inhibition) [1]: 67% | Efficiency (%) liver (ACAT inhibition) [2]: 50%

O=C(Nc1ccc(Oc2ccc([N+](=O)[O-])cc2)cc1)Nc1ccccc1C(F)(F)F [Example 15, 1-(2-Trifluoromethylphenyl)-3-((4′-nitrophenoxy)-phenyl)-urea]
Efficiency (%) mucosa (ACAT inhibition) [1]: 42% | Efficiency (%) liver (ACAT inhibition) [2]: 46%

O=C(Nc1ccc(Oc2ccc([N+](=O)[O-])cc2)cc1)Nc1cccc(C(F)(F)F)c1 [Example 16, 1-(3-Trifluoromethylphenyl)-3-((4′-nitrophenoxy)-phenyl)-urea]
Efficiency (%) mucosa (ACAT inhibition) [1]: 45% | Efficiency (%) liver (ACAT inhibition) [2]: 38%

O=C(Nc1ccc(Oc2ccc([N+](=O)[O-])cc2)cc1)Nc1ccc(C(F)(F)F)cc1 [Example 17, 1-(4-Trifluoromethylphenyl)-3-((4′-nitrophenoxy)-phenyl)-urea]
Efficiency (%) mucosa (ACAT inhibition) [1]: 18% | Efficiency (%) liver (ACAT inhibition) [2]: 25%

O=C(Nc1ccc(Oc2ccc([N+](=O)[O-])cc2)cc1)Nc1ccccn1 [Example 18]
Efficiency (%) mucosa (ACAT inhibition) [1]: 34% | Efficiency (%) liver (ACAT inhibition) [2]: 26%

O=C(Nc1ccc(Oc2ccc([N+](=O)[O-])cc2)cc1)Nc1cccnc1 [Example 19]
Efficiency (%) mucosa (ACAT inhibition) [1]: 0% | Efficiency (%) liver (ACAT inhibition) [2]: 0%

O=C(Nc1ccncc1)Nc1ccc(Oc2ccc([N+](=O)[O-])cc2)cc1 [Example 20]
Efficiency (%) mucosa (ACAT inhibition) [1]: 17% | Efficiency (%) liver (ACAT inhibition) [2]: 11%

O=C(Nc1ccc(Oc2ccc([N+](=O)[O-])cc2)cc1)Nc1cccc2ccccc12 [Example 21]
Efficiency (%) mucosa (ACAT inhibition) [1]: 22% | Efficiency (%) liver (ACAT inhibition) [2]: 14%

O=C(Nc1ccc(Oc2ccc([N+](=O)[O-])cc2)cc1)Nc1ccc2ccccc2c1 [Example 22]
Efficiency (%) mucosa (ACAT inhibition) [1]: 12% | Efficiency (%) liver (ACAT inhibition) [2]: 0%

O=C(Nc1ccc(Oc2ccc([N+](=O)[O-])cc2)cc1)NC12CC3CC(CC(C3)C1)C2 [Example 23]
Efficiency (%) mucosa (ACAT inhibition) [1]: 58% | Efficiency (%) liver (ACAT inhibition) [2]: 43%

O=C(Nc1ccc(Sc2ccc([N+](=O)[O-])cc2)cc1)Nc1ccc([N+](=O)[O-])cc1 [Example 24, 1-(4-Nitrophenyl)-3-((4′-nitrophenylthio)-phenyl)-urea]
Efficiency (%) mucosa (ACAT inhibition) [1]: 34% | Efficiency (%) liver (ACAT inhibition) [2]: 0%

O=C(Nc1ccc(Sc2ccc([N+](=O)[O-])cc2)cc1)Nc1ccccc1F [Example 25, 1-(2-Fluorophenyl)-3-((4′-nitrophenylthio)-phenyl)-urea]
Efficiency (%) mucosa (ACAT inhibition) [1]: 23% | Efficiency (%) liver (ACAT inhibition) [2]: 0%

O=C(Nc1ccc(F)cc1)Nc1ccc(Sc2ccc([N+](=O)[O-])cc2)cc1 [Example 26, 1-(4-Fluorophenyl)-3-((4′-nitrophenylthio)-phenyl)-urea]
Efficiency (%) mucosa (ACAT inhibition) [1]: 27% | Efficiency (%) liver (ACAT inhibition) [2]: 25%

O=C(Nc1ccc(Sc2ccc([N+](=O)[O-])cc2)cc1)Nc1ccc(F)cc1F [Example 27, 1-(2,4-Difluorophenyl)-3-((4′-nitrophenylthio)-phenyl)-urea]
Efficiency (%) mucosa (ACAT inhibition) [1]: 23% | Efficiency (%) liver (ACAT inhibition) [2]: 16%

O=C(Nc1ccc(Sc2ccc([N+](=O)[O-])cc2)cc1)Nc1cc(F)ccc1F [Example 28, 1-(2,5-Difluorophenyl)-3-((4′-nitrophenylthio)-phenyl)-urea]
Efficiency (%) mucosa (ACAT inhibition) [1]: 16% | Efficiency (%) liver (ACAT inhibition) [2]: 0%

O=C(Nc1ccc(Sc2ccc([N+](=O)[O-])cc2)cc1)Nc1c(F)cccc1F [Example 29, 1-(2,6-Difluorophenyl)-3-((4′-nitrophenylthio)-phenyl)-urea]
Efficiency (%) mucosa (ACAT inhibition) [1]: 25% | Efficiency (%) liver (ACAT inhibition) [2]: 11%

O=C(Nc1ccc(Sc2ccc([N+](=O)[O-])cc2)cc1)Nc1ccccc1Cl [Example 30, 1-(2-Chlorophenyl)-3-((4′-nitrophenylthio)-phenyl)-urea]
Efficiency (%) mucosa (ACAT inhibition) [1]: 26% | Efficiency (%) liver (ACAT inhibition) [2]: 20%

O=C(Nc1ccc(Cl)cc1)Nc1ccc(Sc2ccc([N+](=O)[O-])cc2)cc1 [Example 31, 1-(4-Chlorophenyl)-3-((4′-nitrophenylthio)-phenyl)-urea]
Efficiency (%) mucosa (ACAT inhibition) [1]: 21% | Efficiency (%) liver (ACAT inhibition) [2]: 12%

O=C(Nc1ccc(Sc2ccc([N+](=O)[O-])cc2)cc1)Nc1cccc(Cl)c1Cl [Example 32, 1-(2,3-Dichlorophenyl)-3-((4′-nitrophenylthio)-phenyl)-urea]
Efficiency (%) mucosa (ACAT inhibition) [1]: 0% | Efficiency (%) liver (ACAT inhibition) [2]: 0%

O=C(Nc1ccc(Sc2ccc([N+](=O)[O-])cc2)cc1)Nc1ccc(Cl)cc1Cl [Example 33, 1-(2,4-Dichlorophenyl)-3-((4′-nitrophenylthio)-phenyl)-urea]
Efficiency (%) mucosa (ACAT inhibition) [1]: 16% | Efficiency (%) liver (ACAT inhibition) [2]: 12%

O=C(Nc1ccc(Sc2ccc([N+](=O)[O-])cc2)cc1)Nc1c(Cl)cccc1Cl [Example 34, 1-(2,6-Dichlorophenyl)-3-((4′-nitrophenylthio)-phenyl)-urea]
Efficiency (%) mucosa (ACAT inhibition) [1]: 21% | Efficiency (%) liver (ACAT inhibition) [2]: 15%

O=C(Nc1ccc(Sc2ccc([N+](=O)[O-])cc2)cc1)Nc1ccc(Cl)c(Cl)c1 [Example 35, 1-(3,4-Dichlorophenyl)-3-((4′-nitrophenylthio)-phenyl)-urea]
Efficiency (%) mucosa (ACAT inhibition) [1]: 20% | Efficiency (%) liver (ACAT inhibition) [2]: 0%

O=C(Nc1ccc(Sc2ccc([N+](=O)[O-])cc2)cc1)Nc1cc(Cl)cc(Cl)c1 [Example 36, 1-(3,5-Dichlorophenyl)-3-((4′-nitrophenylthio)-phenyl)-urea]
Efficiency (%) mucosa (ACAT inhibition) [1]: 0% | Efficiency (%) liver (ACAT inhibition) [2]: 0%
